Data reported in patent US9011817B2, “Compounds and methods of making compounds” (The Board of Trustees of the Leland Stanford Junior …, priority 2009, dated 2015).

What was measured:
[1] = cited from earlier work
CCRF-CEM cells [2] = assay: Competition of cold 2F-AraG with 8-[3H]-AraG uptake in CCRF-CEM cells; type: cell-based; conditions: increasing amount of 2F-AraG 1-100 μM, 60 or 120 minutes
Protocol: FIG. 2.3a illustrates a graph of 5×10^5 CCRF-CEM cells were incubated, in triplicate, with 1 uCi 8H^3-AraG (1 mCi/ml) and increasing amounts of cold 2F-AraG or DMSO for either 60 or 120 minutes. Percent of control uptake was calculated as: measured cpm of sample/cpm accumulated 1 uCi 8[H^3]-AraG control×100.
We have successfully synthesized a novel ^18F derivative of 2-deoxyguanosine analog, 9-β-D-arabinofuranosylguanine (18F-AraG), to use as a molecular probe (FIG. 2.1). [^18F]AraG cell uptake was evaluated in leukemia cell line, CCRF-CEM, and was compared with [^3H]Arag cell uptake. […] To determine whether cold derivative 2F-AraG competes with the uptake of 8-[^3H]-AraG, we studied the [^3H]-Arag uptakes by CCRF-CEM, MOLT-4 (Leukemia cell line) and Raji (human Burkitt's lymphoma cell line) and competition with cold 2F-AraG (FIGS. 2.3a and 2.3b). […] Competition assays indicate that cold derivative 2F-Arag competes with the uptake of the 8-[^3H]-AraG, indicating similar uptake pathways.

CCRF-CEM cells [3] = assay: [18F]F-AraG cell uptake in CCRF-CEM cells (gamma counter); type: cell-based; conditions: for fold more [18F]F-AraG uptake at 10 μCi as compared to 3 μCi: 5×10^5 CCRF-CEM cells
Protocol: FIG. 2.2 illustrates a graph of 5×10^5 CCRF-CEM cells were labeled with ^18F-AraG (0.6 mCi/ml) for indicated times and doses. Uptake was measured on gamma counter. Bars represent mean of triplicate determinations+/−SEM.
Cells took up ˜2-fold more [^18F]F-AraG when exposed to 10 μCi, at 60 minutes (p=0.008) and at 120 minutes (p=0.001) as compared to 3 μCi. Error bars represent S.E.M.
(§1) CCRF-CEM (acute lymphoblastic T leukemia cell line procured form ATCC) cells were maintained in RPMI 1640 (Cellgro) supplemented with 100 U penicillin/100 ug streptomycin/ml (Cellgro) and 10% fetal bovine serum (Gibco). 5×10^5 CCRF-CEM cells were plated in 12 well dishes. Cells were allowed to settle for one hour then [^18F]F-AraG was added to each well and incubated at 37° C. for indicated times. Primary T cells were isolated from spleens and thymus of out-bred mice. Briefly, tissues were minced and single cell suspensions made in RPMI supplemented as above. Cells were centrifuged at 300×g for 8 minutes at 4° C. and cell pellets were resuspended in phosphate buffered saline (PBS) supplemented with 0.5% bovine serum albumin (BSA). T cells were purified from the suspensions using Miltenyi Pan T antibodies and columns (Miltenyi Biotec) per manufacturer's directions. Purified T cells were either stimulated with 100 U/ml IL-2 (eBiosciences) for 24 or 48 hours, or 50 nM phorbol myristate acetate (PMA) (Fluka) with 1 μg/mL ionomycin (Sigma) for 48 hours or left unstimulated then exposed to 1 μCi of [^18F]F-AraG/10^6 cells for 60 minutes. All cells were then washed in 1×PBS, lysed and radioactivity of each well was determined by gamma counter for [^18F] samples. All results were done in triplicate and are expressed in counts per minute (CPM), standard errors were determined and student T tests performed.

[4] = micro PET scans in normal nude mice; type: in vivo; conditions: initial scans
primary T cells = assay: [18F]F-AraG uptake in purified primary T cells, stimulated or un-stimulated; type: cell-based, mouse; conditions: for fold more uptake than un-stimulated primary T cells: 1 μCi, 60 minutes
Protocol: Error bars represent mean of triplicate determinations+/−SEM., n=4 p=0.14 and 0.003 by two tailed, paired Student T test respectively.
as §1

For `Nc1nc2c(ncn2[C@@H]2O[C@H](CO)[C@@H](O)[C@@H]2O)c(=O)[nH]1` [AraG, 9-β-D-arabinofuranosylguanine], the “therapeutic serum levels at which neurotoxic side effects are induced in some patients” value [1] is listed as ~150 µM.

With `Nc1nc2c(ncn2[C@@H]2O[C@H](CO)[C@@H](O)[C@@H]2F)c(=O)[nH]1` [2F-AraG, 2′-Deoxy-2′-fluoro-9-β-D-arabinofuranosylguanine] the “effect on [3H]-AraG uptake” value (CCRF-CEM cells [2]) was “decrease of the [^3H]-AraG uptake”.

In the case of `Nc1nc2c(ncn2[C@@H]2O[C@H](CO)[C@@H](O)[C@@H]2[18F])c(=O)[nH]1` [[^18F]F-AraG, 2′-Deoxy-2′-[^18F]fluoro-9-β-D-arabinofuranosylguanine], the “fold more [18F]F-AraG uptake at 10 μCi as compared to 3 μCi” value (CCRF-CEM cells [3]; 60 minutes, p=0.008) is reported as ~2 fold, the “fold more [18F]F-AraG uptake at 10 μCi as compared to 3 μCi” value (CCRF-CEM cells [3]; 120 minutes, p=0.001) is reported as ~2 fold and the “dose dependence of uptake” value (CCRF-CEM cells [3]; CCRF-CEM cells) is reported as “dose dependent”. The “time course of uptake” value (CCRF-CEM cells [3]; CCRF-CEM cells, 60 or 120 minutes) was “majority of the [^18F]F-AraG is taken up by cells within the first hour”, the “cell uptake (qualitative)” value (CCRF-CEM cells [3]; CCRF-CEM leukemia cell line, unactivated) was “take up” and the “fold increase in [18F]F-AraG uptake, cells exposed to 10 μCi compared to 3 μCi” value (CCRF-CEM cells [3]; unactivated CCRF-CEM cells, time not stated) was 2 fold. For the same compound, the “tissue uptake in micro PET” value [4] was “taken up within the thymus and lymph nodes”, the “cell uptake (qualitative)” value (primary T cells; activated primary thymocytes / primary T cells) was “take up [^18F]F-AraG to an appreciable level” and the “fold more uptake than un-stimulated primary T cells” value (primary T cells; stimulated with 50 nM PMA and 1 μg/mL ionomycin, p=0.003) was 4.7 fold. The “fold more uptake than un-stimulated primary T cells” value (primary T cells; stimulated with 100 U/mL interleukin 2, p=0.14) was 1.4 fold.
